# Patent publication US12622890B2, “Use of the active compound in the prevention or treatment of ovarian dysfunction diseases” (INSTITUTE OF BIOPHYSICS, CHINESE ACADEMY OF SCIENCES, priority 2022, dated 2026)
# Key:
# POI model mice = assay: Estrous cycle observation by vaginal smear cytology in POI model mice; type: in vivo
# Description: Cytological observation of vaginal smear was performed daily.
# The vagina of mice was exposed, and about 30 μl of normal saline was dripped into the vagina, gently aspirated onto the slide, and observed under the microscope. Staining was performed when necessary, fixed with 95% ethanol for 10 minutes, stained with hematoxylin in aqueous solution for 5-8 minutes, washed with running water for color separation, and then stained with eosin for 3 minutes. After drying. the slices were sealed with neutral gum.
# The vagina of mice was exposed, and about 30 μl of normal saline was dripped into the vagina, gently aspirated onto the slide, and observed under the microscope. Staining was performed when necessary, stained with hematoxylin in aqueous solution for several minutes after drying, washed with running water for color separation, and then stained with alchhol eosin for several seconds. The slices were sealed with neutral gum.
# During the estrous cycle, a series of histological and physiological changes occur in the reproductive and endocrine systems of mice. According to these changes, the estrous cycle can be divided into proestrous (P), estrous (E), metestrum (M) and diestrum (D). • 1. Observation of estrous cycle in mice of Example 1
# After modeling and treatment, there were 6 mice left in the normal saline group, 6 mice left in the sodium fumarate treatment group, 7 mice left in the hyodeoxycholic acid group, and 7 mice left in the sodium fumarate and hyodeoxycholic acid combination group. […] The estrous cycle was divided into four periods (P: proestrous; E: estrous period; M: metestrum; D: diestrum) for vaginal smear cytological observation, the results are shown in FIG. 3.
# The estrous cycle of mice was plotted according to the cytological results of vaginal smears observed for 12 consecutive days, and the results are shown in FIG. 4. The estrous cycle of mice is about 4 to 5 days, which is divided into four periods alternately. […] The estrous cycle of 4 mice was recovered in sodium fumarate treatment group. The estrous cycle of 3 mice was recovered in HDCA group. The estrous cycle of 6 mice was recovered in group treated with SF and HDCA.
# POI mice [1] = assay: Serum estradiol (E2) level in POI mice; type: in vivo; settings: for E2: serum, after 12 days 100 mg/kg/d oral
# Excerpt: (§1) Biomarkers mentioned herein, such as follicle stimulating hormone (FSH), estrogen (e.g., E2), and superoxide dismutase (SOD), malondialdehyde (MDA), relative reactive oxygen species (ROS), and lactate dehydrogenase (LDH), etc., can be detected using methods commonly known in the field. Detection methods typically cover methods that quantify the level of a biomarker in a sample (quantitative methods). Which of the following methods are suitable for qualitative and/or quantitative detection of biomarkers is generally known to those skilled in the field. Samples can be conveniently measured, for example for proteins using immunoassays such as ELISA, RIA, etc., which are commercially available.
# (§2) After 12 days of administration, half of the mice in each group were sacrificed, and their blood was collected and kept still. The serum was separated after centrifugation at 4500 rpm and stored in a refrigerator at −80° C. for future use to measure levels of follicle stimulating hormone, estrogen, and the indexes of oxidative stress such as superoxide dismutase (SOD) and malondial dehyde (MDA).
# as §2, with “kept in” for “kept”, “levals” for “levels”, “malondialdehyde” for “malondial dehyde”
# POI mice [2] = assay: Serum superoxide dismutase (SOD) level, oxidative stress; type: in vivo
# Excerpt: as §1, §2
# as §2, with “kept in” for “kept”, “levals” for “levels”, “malondialdehyde” for “malondial dehyde”
# (§3) The oxidative stress hypothesis believes that the reduction of antioxidant components in the body leads to the weakening of the ability to remove free radicals, which leads to oxidative damage of biological macromolecules, and the imbalance of cellular oxidative and antioxidant functions, which leads to oxidative stress, and then leads to disease and aging. Oxygen free radicals act on unsaturated fatty acids of lipids to generate lipid peroxides, including malondialdehyde (MDA) and so on. The antioxidant defense system of scavenging free radicals includes superoxide dismutase (SOD) and so on. Recently, oxidative stress has been reported to be associated with ovarian aging and POI in primates. Therefore, this embodiment examined the effects of DMF, HDCA, and DMF+HDCA on oxidative stress in mice with premature ovarian failure, and the results are shown in Table 5, FIGS. 9 to 12.
# POI mice [3] = assay: Serum malondialdehyde (MDA) level, oxidative stress; type: in vivo
# Excerpt: as §1, §2
# as §2, with “kept in” for “kept”, “levals” for “levels”, “malondialdehyde” for “malondial dehyde”
# as §3
# POI mice [4] = assay: Serum relative reactive oxygen species (ROS) level; type: in vivo
# Excerpt: as §1, §3
# POI mice [5] = assay: Serum lactate dehydrogenase (LDH) level; type: in vivo
# Excerpt: as §1
# ovarian tissues = assay: RNA transcription level sequencing of ovarian tissues, differentially expressed genes; type: in vivo, mice; settings: ovarian tissue RNA sequencing, FC>2, Q<0.05
# Description: Mice were sacrificed after various treatments, and ovarian tissues were taken, snap-frozen in liquid nitrogen, stored at −80° C., and sent to Annoroad for RNA transcription level sequencing. Bioinformatics analysis and mapping were performed on the sequencing results. […] The differential genes of the three treatment groups were intersectioned. […] These differential gene sets were then subjected to Gene Ontology function (GO) enrichment (FC>2, Q<0.05) (FIG. 16) and signaling pathway (KEGG) analysis mapping (FIG. 17), respectively.
# [6] = Example 1, during drug administration, FIG. 4B
# [7] = serum, POI mice after treatment
structure (smiles),measurement,setting,value
"C[C@H](CCC(=O)O)[C@H]1CC[C@H]2[C@@H]3C[C@H](O)[C@@H]4C[C@H](O)CC[C@]4(C)[C@H]3CC[C@]12C [HDCA, hyodeoxycholic acid, reference compound]",Effect on mice with premature ovarian failure (conclusion from estrous cycle),POI model mice; Example 1,preventive and therapeutic effects
same,Average rate of diestrum (D) in estrous cycle,POI model mice; [6],39.29%
same,Average rate of estrous stage (E) in estrous cycle,POI model mice; [6],22.62%
same,Average rate of metestrum (M) in estrous cycle,POI model mice; [6],14.29%
same,Average rate of proestrous (P) in estrous cycle,POI model mice; [6],23.81%
same,Number of mice with estrous cycle recovered,"POI model mice; Example 1, 12 days observation, 6 SF, 7 HDCA, 7 SF and HDCA mice left",3 mice
same,Serum E2 level compared with the normal saline group,"POI mice [1]; Example 1, FIG. 7",tendency to increase
same,Serum E2 level compared with the normal saline group,"POI mice [1]; Example 2, FIG. 8, not statistically significant",certain tendency to decrease
same,E2,POI mice [1]; Example 1 POI mice,49.69 ± 7.11 pg/mL
same,E2,POI mice [1]; Example 2 POI mice,42.96 ± 14.28 pg/mL
same,Activity of SOD compared with the normal saline group,"POI mice [2]; FIG. 9, difference not significant",increased
same,SOD,POI mice [2]; [7],14.59 ± 5.65 U/mL
same,MDA activity compared with the normal saline group,"POI mice [3]; FIG. 10, no significant difference",reduced to some extent
same,MDA,POI mice [3]; [7],2.86 ± 4.39 nmol/mL
same,ROS levels compared with the normal saline group,POI mice [4]; FIG. 11,significantly reduced
same,ROS,"POI mice [4]; relative ROS level in serum, POI mice after treatment",4.589 ± 0.599
same,Activity of LDH compared with the normal saline group,POI mice [5]; FIG. 12,reduced to some extent
same,LDH,POI mice [5]; [7],2821.58 ± 318.30 U/mL
same,Number of genes down-regulated compared with the control group,ovarian tissues,4749 genes
same,Number of genes up-regulated compared with the control group,ovarian tissues,1898 genes
